Experiments:
normal prostate cells = assay: topical labeling of prostate cells during surgery, imaged by fibered confocal fluorescence microscopy; type: in vivo; details: rat during a surgical procedure
Text: The marker bar indicates 30 microns.
The imaging equipment selected for use in the present invention was a Cell-vizio (purchased from Mauna Kea Technologies), an ultra-high resolution molecular imaging system that employs fibered confocal fluorescence microscopy technology. This system was specifically designed to visualize cellular structures and quantify molecular events in vivo and is composed of an autonomous Laser Scanning Unit, a range of fibered objectives made of tens of thousands of optical fibers, and a dedicated image processing and analysis software package. The system is capable of capturing images at a rate of 12 frames per second in living anesthetized animals. These images have a lateral resolution of the order of a micron, an axial resolution of 15 to 20 μm, a field of view up to 600 μm×500 μm, and can be obtained at depths up to 80 μm. The fibered probes have diameters ranging from 300 μm to 1.8 mm, allowing for access to the narrow spaces posterior to the prostate where the cavernous nerves are located.

[1] = cited from earlier work

Row | Substance | in vivo labeling of normal prostate cells (FIG. 3) (normal prostate cells) | water solubility [1] | photostability ([1]; compared with fluorescein)
1 | acriflavine | normal prostate cells labeled | – | –
2 | Alexa Fluor 488 | – | water solubility, with no organic co-solvents required in labeling reactions | much greater photostability than fluorescein

Reference: patent US20080194970A1 (priority 2005, published 2008)
